{"source": "patent US9480695B2", "about": "“Methods for inducing orexin neurons and agent for treating narcolepsy or eating disorder” (THE UNIVERSITY OF TOKYO, priority 2011, dated 2016)", "key": {"[1]": {"test_system": "Mouse ES cells (J1 strain)", "assay": "Hcrt expression in mouse ES cells, SFEB/gfCDM differentiation culture system, RT-PCR", "assay_type": "cell-based", "settings": "1.0 mM from 7th day of differentiation culturing", "description": "Mouse ES cells (J1 strain) which had been maintained in a medium for an ES cell were seeded on a 96-well low adhering round-bottom culture dish (Nunc) so that the cell count became 10,000 cells per well, and cultured with gfCDM [IMDM/F12 (Invitrogen) added with 5 mg/ml BSA (SIGMA), 450 μM Monothioglycerol (Wako), 1× chemically defined lipid concentrate (Invitrogen), 50 U/ml penicillin/50 μg/ml streptomycin] for 7 days. The cells were cultured in 150 μl of a medium per well. On 7th day of differentiation culturing, the medium was exchanged with a DFK medium [DMEM/F12 (Invitrogen) added with 7 g/1 glucose, 10% KSR, 50 U/ml penicillin/50 μg/ml streptomycin], and on 10th day, half the amount of the medium was exchanged with a DFNB medium [7 g/1 glucose, 1×N2 (Wako), 1×B27 (Invitrogen)] containing 10 ng/ml CNTF. On 13th day of culturing, cells were detached with 0.05% trypsin/EDTA, seeded on a culture dish (Falcon) which had been treated with poly-D-lysine/laminin so that the cell count became 4.8×10^6 cells per 10 cm culture dish, and cultured in a DFNB medium containing 10% FBS, 10 ng/ml CNTF, 50 ng/ml BDNF and 50 ng/ml NT3. The medium was exchanged every 3 days. On 25th day of differentiation culturing, cells were collected and pelletized by a centrifugation operation to remove the culture medium. Thereafter, the pellets were immediately frozen in liquid nitrogen, and stored at −80° C. until use.\nThe analysis was performed by the same method as that of Example 1."}, "[2]": {"test_system": "endbrain-derived neurosphere (NSph)", "assay": "Orexin inducing action on mouse fetus-derived neurosphere (NSph), RT-PCR", "assay_type": "cell-based", "settings": "1 mM from initiation of NSph culture, 6 days plus 10 days differentiation; FIG. 7", "description": "A culture and differentiation induction experiment was performed based on the method of Ciccolini and Svendsen (1998, J Neurosci. 18(19): 7869-80). An endbrain was removed from a C57BL/6N mouse fetus having an embryonic age of 14.5 days in ice-cold PBS/0.6% glucose. Dispersion into a single cell was performed by pipetting, and cells were suspended in a medium for NSph [DMEM/F12 (Wako) containing 1×B27 (Invitrogen), 20 ng/ml EGF (Sigma), 20 ng/ml FGF-basic (PEPROTECH), 5 μg/ml heparin (Sigma)] and seeded on a 10 cm petri dish in an amount of 2×10^6 cells/10 ml. Half the amount of the medium was exchanged 3 days after initiation of culturing, and culturing was performed for another 3 days (total 6 days).\nNSph was recovered 6 days after initiation of culturing, and cells were dispersed by pipetting in PBS/0.6% glucose. Cells were collected by centrifugation and suspended in a medium for differentiation induction (not containing EGF, FGF-basic and heparin of a medium for NSph). Cells were seeded in an amount of 4.5×10^5 cells/7.5 ml on a 6 cm dish which had been coated with poly-L-lysine/laminin (both Sigma) in advance, and differentiation was induced. Half the amount of the medium was exchanged 5 days after initiation of differentiation induction, and culturing was performed for another 5 days (total 10 days). […]"}}}
{"smiles": "CC(=O)N[C@@H]1C(O)O[C@H](CO)[C@@H](O)[C@@H]1O", "note": "(stereo partly drawn) [ManNAc, N-acetyl-D-mannosamine]", "values": [{"measurement": "Level of Hcrt expression compared with Neu5Ac-added section", "setting": "[1]", "value": "high expression of Hcrt was observed"}, {"measurement": "Expression of Hcrt", "setting": "[1]; cells collected on 25th day, FIG. 5", "value": "expression of Hcrt was recognized"}, {"measurement": "Expression of Hcrt", "setting": "[2]", "value": "detected only in a 1.0 mM ManNAc-added culture"}]}
